The subject of series [1] is human apolipoprotein B mRNA. Kind of series: Inhibition of apolipoprotein B mRNA by dsRNAs in HepG2 cells. Type of series: cell-based. The settings on record: 150 nM with 3.75 μg/mL LIPOFECTIN
The method, then: In accordance with the present invention, a series of nucleic acid duplexes comprising the antisense compounds of the present invention and their complements were designed to target apolipoprotein B and are shown in Table 42. All compounds in Table 42 are oligoribonucleotides 20 nucleotides in length with phosphodiester internucleoside linkages (backbones) throughout the compound. The compounds were prepared with blunt ends. […] These sequences are shown to contain uracil (U) but one of skill in the art will appreciate that uracil (U) is generally replaced by thymine (T) in DNA sequences. “Targer site” indicates the first (5′-most) nucleotide number on the particular target sequence to which the compound binds. A subset of the compounds in Table 42 are the RNA equivalents of DNA antisense oligonucleotides described herein, and, where applicable, this is noted by the ISIS # of the DNA oligonucleotide in the column “RNA equivalent of ISIS #”.
The dsRNA compounds in Table 42 were tested for their effects on human apolipoprotein mRNA in HepG2 cells. HepG2 cells were treated with 100 nM of dsRNA compounds mixed with 5 μg/mL LIPOFECTIN (Invitrogen Corporation, Carlsbad, Calif.) for a period of 16 hours. In the same experiment, HepG2 cells were also treated with 150 nM of subset of the antisense oligonucleotides described herein mixed with 3.75 μg/mL LIPOFECTIN; these compounds are listed in Table 43. Control oligonucleotides included ISIS 18078 ([…], SEQ ID NO: 888). ISIS 18078 is a chimeric oligonucleotide (“gapmer”) 20 nucleotides in length, composed of a central “gap” region consisting of 9 2′-deoxynucleotides, which is flanked on the 5′ and 3′ ends by a five-nucleotide “wing” and a six-nucleotide “wing”, respectively. The wings are composed of 2′-methoxyethyl (2′-MOE)nucleotides. The internucleoside (backbone) linkages are phosphorothioate (P═S) throughout the oligonucleotide. All cytidines are 5-methylcytidines. The duplex of ISIS 263188 ([…], SEQ ID NO: 889) and its complement was also used as a control. ISIS 263188 is an oligoribonucleotide 21 nucleotides in length with the 2 nucleotides on the 3′ end being oligodeoxyribonucleotides (TT) and with phosphodiester internucleoside linkages (backbones) throughout the compound.
Cells were treated for 4 hours, after which human apolipoprotein B mRNA expression was measured as described by examples herein. Results were normalized to untreated control cells, which were not treated with LIPOFECTIN or oligonucleotide.

For series [2], the system named is human apolipoprotein B mRNA. The series can be described thus: Inhibition of human apolipoprotein B mRNA levels in HepG2 cells, quantitative real-time PCR. It is filed as cell-based. The note with it: for % INHIB (inhibition of human apolipoprotein B mRNA levels): HepG2 cells treated with 150 nM of compound, averages from two experiments, quantitative real-time PCR; for % inhibition 37 nM / % inhibition 75 nM / % inhibition 150 nM / % inhibition 300 nM: Table 19 dose response, HepG2 cells, normalized to untreated control. In a few lines:
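Apolipoprotein B transcript was quantified by one-step TaqMan RT-PCR, normalized to GAPDH or RiboGreen RNA, and expressed as percent inhibition against an untreated-sample standard curve. HepG2 cells were harvested 16-24 h after oligonucleotide exposure, which was delivered with 3.75 μg/mL Lipofectin over 4-7 h at 80% confluency.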

In the oligonucleotide strings, read from the 5' end, every base follows the letter of its sugar. An asterisk marks phosphorothioate; unmarked linkages are phosphodiester. Other units and linkages are bracketed, terminal groups are in braces. A string of capitals states the bases alone. e = 2'-O-(2-methoxyethyl) (MOE); [5mC] = 5-methylcytosine; d = 2'-deoxy (DNA)

As to “301045 (eA*eG*e[5mC]*eA*eA*dA*dA*dT*dA*dA*d[5mC]*dT*d[5mC]*dA*dG*eA*eT*e[5mC]*e[5mC]*eT; antisense) [compound 301045]”, in series [1], the “% Inhibition of apolipoprotein B mRNA” value was found to be 77%. Further, in series [2], the “% INHIB (inhibition of human apolipoprotein B mRNA levels)” value was determined as 90%, the “% inhibition 37 nM” value turned out to be 77%, the “% inhibition 75 nM” value is given as 86% and the “% inhibition 150 nM” value stood at 94%. Also, the “% inhibition 300 nM” value in series [2] turned out to be 98%.
As for “301037 (e[5mC]*eA*eG*e[5mC]*eT*dT*dT*dG*dG*dT*dG*d[5mC]*dA*dG*dG*eT*e[5mC]*e[5mC]*eA*eG; antisense) [compound 301037]”, the “% Inhibition of apolipoprotein B mRNA” value in series [1] is reported as 80%. Also, in series [2], the “% INHIB (inhibition of human apolipoprotein B mRNA levels)” value was determined as 90%, the “% inhibition 37 nM” value is 73%, the “% inhibition 75 nM” value was 85% and the “% inhibition 150 nM” value is recorded as 89%. The “% inhibition 300 nM” value in series [2] amounted to 96%.
As to “301021 (eG*eG*eT*e[5mC]*e[5mC]*dA*dT*d[5mC]*dG*d[5mC]*d[5mC]*dA*dG*d[5mC]*dT*eG*e[5mC]*eG*eG*eT; antisense) [compound 301021]”, the “% Inhibition of apolipoprotein B mRNA” value in series [1] amounted to 67%. Moreover, the “% INHIB (inhibition of human apolipoprotein B mRNA levels)” value in series [2] is 89%.
As for “301029 (eG*eG*e[5mC]*eT*eG*dG*d[5mC]*dT*d[5mC]*dA*d[5mC]*dT*dG*dT*dA*eT*eG*eG*eT*eT; antisense) [compound 301029]”, in series [1], the “% Inhibition of apolipoprotein B mRNA” value is on record as 77%. In series [2], the “% INHIB (inhibition of human apolipoprotein B mRNA levels)” value is given as 90%, the “% inhibition 37 nM” value came to 54%, the “% inhibition 75 nM” value is reported as 67% and the “% inhibition 150 nM” value is listed as 79%. Besides, in series [2], the “% inhibition 300 nM” value is 85%.
Consider “301028 (eG*eG*e[5mC]*eT*e[5mC]*dA*d[5mC]*dT*dG*dT*dA*dT*dG*dG*dT*eT*eT*eT*eA*eT; antisense) [compound 301028]”, for which the “% Inhibition of apolipoprotein B mRNA” value in series [1] is given as 85%. Besides, in series [2], the “% INHIB (inhibition of human apolipoprotein B mRNA levels)” value is 93%, the “% inhibition 37 nM” value was determined as 70%, the “% inhibition 75 nM” value turned out to be 79% and the “% inhibition 150 nM” value came to 85%. In addition, the “% inhibition 300 nM” value in series [2] is 92%.
Turning to “301030 (eA*eG*eG*e[5mC]*eT*dG*dG*d[5mC]*dT*d[5mC]*dA*d[5mC]*dT*dG*dT*eA*eT*eG*eG*eT; antisense) [compound 301030]”, the “% Inhibition of apolipoprotein B mRNA” value in series [1] is reported as 70%. For the same substance, in series [2], the “% INHIB (inhibition of human apolipoprotein B mRNA levels)” value worked out at 90%, the “% inhibition 37 nM” value was 64%, the “% inhibition 75 nM” value is given as 75% and the “% inhibition 150 nM” value is recorded as 87%. Besides, the “% inhibition 300 nM” value in series [2] is 92%.
Turning to “301038 (eG*e[5mC]*e[5mC]*eA*eG*d[5mC]*dT*dT*dT*dG*dG*dT*dG*d[5mC]*dA*eG*eG*eT*e[5mC]*e[5mC]; antisense) [compound 301038]”, the “% Inhibition of apolipoprotein B mRNA” value in series [1] came to 84%. Besides, the “% INHIB (inhibition of human apolipoprotein B mRNA levels)” value in series [2] is 86%.
